The values below are quoted from earlier work in US8906604B2, “Store-operated calcium cellular assay” (National Center for Biological Sciences, priority 2009, dated 2014).

A word on the Kd: it is the free concentration of one partner at which half of the binding sites on the other are occupied at equilibrium, for simple one-to-one binding.

The conditions of this data set: in Drosophila S2 cells; published value (Hardie et al. 1996); read-out: Kd value for Indo-1.

For the molecule `Cc1ccc(N(CC(=O)O)CC(=O)O)c(OCCOc2cc(-c3cc4ccc(C(=O)O)cc4[nH]3)ccc2N(CC(=O)O)CC(=O)O)c1` [Indo-1], the Kd is 1.16 µM.
